Values after ≈ are worked out from the molar mass of the structure shown.
Legend:
[1] = target: Bromodomain-containing protein 2 (Homo sapiens, UniProt P25440)
Description: Binding affinity to His6-tagged BRD2 (unknown origin) after 60 mins by fluorescence anisotropy binding Assay

[2] = target: Bromodomain-containing protein 3 (Homo sapiens, UniProt Q15059)
Description: Binding affinity to His6-tagged BRD3 (unknown origin) after 60 mins by fluorescence anisotropy binding Assay

PBMC = assay: cells; settings: Homo sapiens, read-out: pIC50 (converted)
Description: Antiinflammatory activity against human PBMC cells assessed as LPS-induced IL-6 production by chemiluminescence assay

[3] = Half life in buffer at pH 2 by HPLC analysis; format: physicochemical
physchem = settings: FaSSIF, pH 6.5
Description: Solubility of the compound in FaSSIF at pH 6.5 after 16 hrs by HPLC analysis

HepG2 = assay: Upregulation of human apoA1 level in human HepG2 cells after 16 to 20 hrs by luciferase reporter gene assay; format: functional
[4] = Volume of distribution in beagle dog at 1 mg/kg, iv and 3 mg/kg, po after 1 hr; format: ADME, organism-based, Canis lupus familiaris; settings: in vivo
[5] = AUC (0 to infinity) in CD rat at 1 mg/kg, iv and 3 mg/kg, po after 1 hr; format: ADME, organism-based; settings: plasma
Salmonella typhimurium [6] = assay: Genotoxicity in Salmonella typhimurium TA1535 by Ames test in presence of rat S9 mix; format: toxicity, organism-based; settings: salmonella enterica subsp. enterica serovar typhimurium
Liver microsomes [7] = settings: human, 0.5 h
Description: Clearance in human liver microsomes after 30 mins by LC/MS/MS analysis

[8] = Volume of distribution in CD rat at 1 mg/kg, iv and 3 mg/kg, po after 1 hr; format: ADME, organism-based; settings: in vivo
[9] = Terminal half life in beagle dog at 1 mg/kg, iv after 1 hr; format: ADME, organism-based, Canis lupus familiaris; parameters: dose 1 mg/kg, route intravenous; settings: in vivo, read-out: beta t1/2 (converted)
Salmonella typhimurium [10] = assay: Genotoxicity in Salmonella typhimurium TA100 by Ames test in presence of rat S9 mix; format: toxicity, organism-based; settings: salmonella enterica subsp. enterica serovar typhimurium
Salmonella typhimurium [11] = assay: Genotoxicity in Salmonella typhimurium TA1537 by Ames test in presence of rat S9 mix; format: toxicity, organism-based; settings: salmonella enterica subsp. enterica serovar typhimurium
Salmonella typhimurium [12] = assay: Genotoxicity in Salmonella typhimurium TA100 by Ames test; format: toxicity, organism-based; settings: salmonella enterica subsp. enterica serovar typhimurium
[13] = Oral bioavailability in cynomolgus monkey at 5 mg/kg after 1 hr; format: ADME, organism-based, Macaca fascicularis; settings: in vivo
Liver microsomes [14] = settings: rat, 0.5 h
Description: Clearance in rat liver microsomes after 30 mins by LC/MS/MS analysis

[15] = Terminal half life in Balb/c mouse at 1 mg/kg, iv after 1 hr; format: ADME, organism-based; parameters: dose 1 mg/kg, route intravenous; settings: in vivo, read-out: beta t1/2 (converted)
[16] = Terminal half life in CD rat at 1 mg/kg, iv after 1 hr; format: ADME, organism-based; parameters: dose 1 mg/kg, route intravenous; settings: in vivo, read-out: beta t1/2 (converted)
Salmonella typhimurium [17] = assay: Genotoxicity in Salmonella typhimurium TA98 by Ames test; format: toxicity, organism-based; settings: salmonella enterica subsp. enterica serovar typhimurium
Hepatocyte [18] = settings: human, hepatocytes, 2 h
Description: Clearance in human hepatocytes after 120 mins by LC/MS/MS analysis

[19] = Oral bioavailability in beagle dog at 3 mg/kg after 1 hr; format: ADME, organism-based, Canis lupus familiaris; settings: in vivo
in vivo [20] = settings: CD, rat, iv, 1 mg/kg
[21] = dog, hepatocytes, 2 h
Description: Clearance in dog hepatocytes after 120 mins by LC/MS/MS analysis

[22] = AUC (0 to infinity) in cynomolgus monkey at 2 mg/kg, iv and 5 mg/kg, po after 1 hr; format: ADME, organism-based, Macaca fascicularis; settings: plasma
[23] = Fraction unbound in rat blood at 1000 ng/ml by equilibrium dialysis mehod; format: ADME, tissue-based
[24] = Oral bioavailability in Balb/c mouse at 3 mg/kg after 1 hr; format: ADME, organism-based; settings: in vivo
in vivo [25] = settings: beagle, dog, iv, 1 mg/kg
Salmonella typhimurium [26] = assay: Genotoxicity in Salmonella typhimurium TA98 by Ames test in presence of rat S9 mix; format: toxicity, organism-based; settings: salmonella enterica subsp. enterica serovar typhimurium
in vivo [27] = settings: cynomolgus monkey, iv, 2 mg/kg
[28] = Volume of distribution in cynomolgus monkey at 2 mg/kg, iv and 5 mg/kg, po after 1 hr; format: ADME, organism-based, Macaca fascicularis; settings: in vivo
[29] = AUC (0 to infinity) in beagle dog at 1 mg/kg, iv and 3 mg/kg, po after 1 hr; format: ADME, organism-based, Canis lupus familiaris; settings: plasma
[30] = cynomolgus monkey, hepatocytes, 2 h
Description: Clearance in cynomolgus monkey hepatocytes after 120 mins by LC/MS/MS analysis

[31] = Fraction unbound in dog blood at 1000 ng/ml by equilibrium dialysis method; format: ADME, tissue-based, Canis lupus familiaris
[32] = AUC (0 to infinity) in Balb/c mouse at 1 mg/kg, iv and 3 mg/kg, po after 1 hr; format: ADME, organism-based; settings: plasma
[33] = Fraction unbound in mouse blood at 1000 ng/ml by equilibrium dialysis method; format: ADME, tissue-based
Liver [34] = settings: mouse, microsomes, 0.5 h
Description: Clearance in mouse liver microsomes after 30 mins by LC/MS/MS analysis

[35] = Oral bioavailability in CD rat at 3 mg/kg after 1 hr; format: ADME, organism-based; settings: in vivo
Salmonella typhimurium [36] = assay: Genotoxicity in Salmonella typhimurium TA1535 by Ames test; format: toxicity, organism-based; settings: salmonella enterica subsp. enterica serovar typhimurium
Hepatocyte [37] = settings: mouse, hepatocytes, 2 h
Description: Clearance in mouse hepatocytes after 120 mins by LC/MS/MS analysis

in vivo [38] = settings: Balb/c, mouse, iv, 1 mg/kg
[39] = Terminal half life in cynomolgus monkey at 2 mg/kg, iv after 1 hr; format: ADME, organism-based, Macaca fascicularis; parameters: dose 2 mg/kg, route intravenous; settings: in vivo, read-out: beta t1/2 (converted)
[40] = cynomolgus monkey, microsomes, 0.5 h
Description: Clearance in cynomolgus monkey liver microsomes after 30 mins by LC/MS/MS analysis

[41] = Volume of distribution in Balb/c mouse at 1 mg/kg, iv and 3 mg/kg, po after 1 hr; format: ADME, organism-based; settings: in vivo
Rattus norvegicus = assay: Antiinflammatory activity against po dosed Sprague-Dawley rat immunoinflammatory model assessed as inhibition of KLH-induced ear swelling administered qd for 7 days measured 24 hrs post KLH challenge relative to control; format: functional, organism-based
Liver [42] = settings: dog, microsomes, 0.5 h
Description: Clearance in dog liver microsomes after 30 mins by LC/MS/MS analysis

Salmonella typhimurium [43] = assay: Genotoxicity in Salmonella typhimurium TA1537 by Ames test; format: toxicity, organism-based; settings: salmonella enterica subsp. enterica serovar typhimurium
Hepatocyte [44] = settings: rat, hepatocytes, 2 h
Description: Clearance in rat hepatocytes after 120 mins by LC/MS/MS analysis

[45] = Fraction unbound in human blood at 1000 ng/ml by equilibrium dialysis method; format: ADME, tissue-based

Chain of Bromodomain-containing protein 3 (Q15059 whole entry): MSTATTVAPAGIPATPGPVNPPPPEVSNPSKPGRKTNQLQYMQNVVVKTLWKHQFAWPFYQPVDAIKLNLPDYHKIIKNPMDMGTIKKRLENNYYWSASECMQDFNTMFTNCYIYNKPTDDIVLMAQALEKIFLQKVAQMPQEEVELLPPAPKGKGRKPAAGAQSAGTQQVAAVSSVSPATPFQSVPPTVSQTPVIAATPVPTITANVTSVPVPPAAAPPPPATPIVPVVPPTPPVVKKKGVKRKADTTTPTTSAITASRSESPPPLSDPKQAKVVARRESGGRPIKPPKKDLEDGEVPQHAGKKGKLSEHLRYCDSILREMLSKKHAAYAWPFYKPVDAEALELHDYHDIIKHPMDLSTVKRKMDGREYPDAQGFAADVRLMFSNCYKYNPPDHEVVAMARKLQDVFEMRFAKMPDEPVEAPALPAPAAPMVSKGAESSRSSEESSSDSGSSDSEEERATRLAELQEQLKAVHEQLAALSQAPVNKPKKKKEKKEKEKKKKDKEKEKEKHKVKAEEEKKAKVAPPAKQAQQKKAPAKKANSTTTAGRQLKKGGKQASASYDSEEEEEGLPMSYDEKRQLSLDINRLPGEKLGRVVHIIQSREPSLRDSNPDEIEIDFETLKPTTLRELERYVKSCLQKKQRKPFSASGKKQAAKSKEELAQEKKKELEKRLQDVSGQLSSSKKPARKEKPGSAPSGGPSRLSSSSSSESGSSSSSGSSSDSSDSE
Chain of Bromodomain-containing protein 2 (P25440 whole entry): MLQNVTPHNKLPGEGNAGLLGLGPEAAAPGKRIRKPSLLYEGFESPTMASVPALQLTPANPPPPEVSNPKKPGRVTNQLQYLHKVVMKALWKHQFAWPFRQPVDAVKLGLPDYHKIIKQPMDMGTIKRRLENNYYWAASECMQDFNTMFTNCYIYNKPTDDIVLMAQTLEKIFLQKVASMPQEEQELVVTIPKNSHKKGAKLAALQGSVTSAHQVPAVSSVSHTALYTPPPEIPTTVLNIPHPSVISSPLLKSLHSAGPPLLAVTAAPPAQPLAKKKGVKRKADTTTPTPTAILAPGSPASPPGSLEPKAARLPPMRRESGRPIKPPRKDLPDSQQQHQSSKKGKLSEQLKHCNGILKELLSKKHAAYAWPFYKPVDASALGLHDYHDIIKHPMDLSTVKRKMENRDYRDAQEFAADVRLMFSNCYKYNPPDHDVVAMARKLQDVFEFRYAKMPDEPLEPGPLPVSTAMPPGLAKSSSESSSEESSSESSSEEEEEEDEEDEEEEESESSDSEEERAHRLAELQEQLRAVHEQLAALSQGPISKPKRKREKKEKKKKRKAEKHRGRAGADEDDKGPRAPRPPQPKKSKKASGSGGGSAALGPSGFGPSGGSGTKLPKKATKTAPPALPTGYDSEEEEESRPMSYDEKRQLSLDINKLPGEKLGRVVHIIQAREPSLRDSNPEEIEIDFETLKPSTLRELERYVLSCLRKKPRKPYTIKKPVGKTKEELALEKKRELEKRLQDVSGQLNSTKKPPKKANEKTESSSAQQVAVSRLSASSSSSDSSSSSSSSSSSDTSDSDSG

Cc1nnc2n1-c1ccccc1C(c1ccccc1)=NC2NC(=O)CCc1ccccc1 (centres undefined)
IC50 [1]: 15800 nM
IC50 [2]: 3160 nM

Cc1nnc2n1-c1ccccc1C(c1ccccc1)=NC2CC(=O)NCc1ccccc1 (centres undefined)
IC50 (PBMC): 5010 nM
half-life [3]: > 120 min
solubility at 16 h (physchem): 1 µg/mL (≈ 2.37 µM)
IC50 [1]: 2510 nM
IC50 [2]: 2000 nM

COc1ccc2c(c1)C(c1ccc(Cl)cc1)=N[C@@H](CC(=O)Nc1cccnc1)c1nnc(C)n1-2
solubility at 16 h (physchem): 95 µg/mL (≈ 201 µM)

COC(=O)C[C@@H]1N=C(c2ccc(Cl)cc2)c2cc(OC)ccc2-n2c(C)nnc21
IC50 (PBMC): 126 nM
solubility at 16 h (physchem): 115 µg/mL (≈ 280 µM)

COc1ccc2c(c1)C(c1ccc(Cl)cc1)=N[C@@H](CC(=O)NCC1CC1)c1nnc(C)n1-2
solubility at 16 h (physchem): 111 µg/mL (≈ 247 µM)

CCOC(=O)N[C@@H]1N=C(c2ccccc2)c2ccccc2-n2c(C)nnc21
IC50 (PBMC): 200 nM
half-life [3]: 13.8 min

CCOC(=O)NC1N=C(c2ccc(Cl)cc2)c2ccccc2-n2c(C)nnc21 (centres undefined)
half-life [3]: 45 min
IC50 [1]: 2510 nM
IC50 [2]: 1260 nM

Cc1nnc2n1-c1ccc([N+](=O)[O-])cc1C(c1ccccc1)=NC2NC(=O)OCc1ccccc1 (centres undefined)
IC50 (PBMC): 2000 nM
IC50 [1]: 12600 nM

Cc1nnc2n1-c1ccccc1C(c1ccccc1)=NC2NC(=O)Oc1cccc(F)c1 (centres undefined)
IC50 [1]: 3160 nM
IC50 [2]: 1260 nM

COc1ccc2c(c1)C(c1ccc(Cl)cc1)=N[C@@H](CC(=O)Nc1ccc(F)cc1)c1nnc(C)n1-2
IC50 (PBMC): 2000 nM
solubility at 16 h (physchem): 105 µg/mL (≈ 214 µM)

Cc1nnc2n1-c1ccccc1C(c1ccccc1)=NC2NC(=O)NCc1ccccc1 (centres undefined)
IC50 (PBMC): 398 nM
IC50 [1]: 2000 nM
IC50 [2]: 794 nM

Cc1nnc2n1-c1ccccc1C(c1ccccc1)=NC2NC(=O)OCc1ccc(F)cc1 (centres undefined)
IC50 (PBMC): 316 nM
half-life [3]: 19.8 min
IC50 [1]: 2000 nM
IC50 [2]: 1000 nM

CCNC(=O)C[C@@H]1N=C(c2ccc(Cl)cc2)c2ccc(OC)cc2-n2c(C)nnc21
IC50 (PBMC): 631 nM

CCNC(=O)C[C@@H]1N=C(c2cccc(F)c2)c2cc(OC)ccc2-n2c(C)nnc21
solubility at 16 h (physchem): 116 µg/mL (≈ 285 µM)

Cc1ccc2c(c1)-n1c(C)nnc1C(NC(=O)OCc1ccccc1)N=C2c1ccccc1 (centres undefined)
IC50 (PBMC): 631 nM
IC50 [1]: 2510 nM
IC50 [2]: 1260 nM

Cc1ccc(C2=NC(NC(=O)OCc3ccccc3)c3nnc(C)n3-c3ccccc32)cc1 (centres undefined)
IC50 [1]: 1580 nM
IC50 [2]: 1000 nM

COc1ccccc1C1=NC(NC(=O)OCc2ccccc2)c2nnc(C)n2-c2ccccc21 (centres undefined)
IC50 (PBMC): 10000 nM
IC50 [1]: 10000 nM

COc1ccc2c(c1)C(c1ccccc1)=NC(NC(=O)OCc1ccccc1)c1nnc(C)n1-2 (centres undefined)
IC50 (PBMC): 126 nM
IC50 [1]: 794 nM
IC50 [2]: 794 nM

COc1cccc(C2=NC(NC(=O)OCc3ccccc3)c3nnc(C)n3-c3ccccc32)c1 (centres undefined)
IC50 (PBMC): 501 nM
IC50 [1]: 3160 nM

Cc1nnc2n1-c1ccc(Cl)cc1C(c1ccccc1)=NC2NC(=O)OCc1ccccc1 (centres undefined)
IC50 (PBMC): 631 nM
IC50 [1]: 3160 nM
IC50 [2]: 1580 nM

COc1ccc2c(c1)C(c1ccc(Cl)cc1)=N[C@@H](CC(=O)Nc1ccccn1)c1nnc(C)n1-2
IC50 (PBMC): 316 nM
solubility at 16 h (physchem): 115 µg/mL (≈ 243 µM)

Cc1nnc2n1-c1ccccc1C(c1ccccc1)=NC2NS(=O)(=O)Cc1ccccc1 (centres undefined)
IC50 (PBMC): 15800 nM
IC50 [1]: 31600 nM

CCOC(=O)NC1N=C(c2ccccc2)c2ccccc2-n2c(C)nnc21 (centres undefined)
half-life [3]: 33.6 min

COc1ccc2c(c1)C(c1ccc(Cl)cc1)=N[C@@H](CC(=O)O)c1nnc(C)n1-2
IC50 (PBMC): > 100000 nM
solubility at 16 h (physchem): 113 µg/mL (≈ 285 µM)

Cc1nnc2n1-c1ccccc1C(c1ccccc1)=NC2NC(=O)OCc1ccccc1 (centres undefined)
EC170 (HepG2): 0.22 µM
IC50 (PBMC): 158 nM
half-life [3]: 34.8 min

CCCCOC(=O)C[C@@H]1N=C(c2ccc(Cl)cc2)c2cc(OC)ccc2-n2c(C)nnc21
solubility at 16 h (physchem): 104 µg/mL (≈ 230 µM)

COc1ccc(C2=NC(NC(=O)OCc3ccccc3)c3nnc(C)n3-c3ccccc32)cc1 (centres undefined)
IC50 (PBMC): 316 nM
IC50 [1]: 2000 nM
IC50 [2]: 1000 nM

CCNC(=O)C[C@@H]1N=C(c2ccc(Cl)cc2)c2cc(OC)ccc2-n2c(C)nnc21 [MOLIBRESIB]
Vd [4]: 1.8 L/kg
AUC(0-inf) [5]: 201 ng·h/mL
Activity (Salmonella typhimurium [6]): Non-toxic
CLH (Liver microsomes [7]): < 0.53 mL/min/g
IC50 (PBMC): 316 nM
Vd [8]: 1.8 L/kg
half-life [9]: 354 min
Activity (Salmonella typhimurium [10]): Non-toxic
Activity (Salmonella typhimurium [11]): Non-toxic
Activity (Salmonella typhimurium [12]): Non-toxic
bioavailability [13]: 52%
CLH (Liver microsomes [14]): 1.45 mL/min/g
half-life [15]: 90 min
half-life [16]: 30 min
Activity (Salmonella typhimurium [17]): Non-toxic
CLH (Hepatocyte [18]): < 0.86 mL/min/g
bioavailability [19]: 44%
clearance at 1 h (in vivo [20]): 63 mL/min/kg
CLH [21]: < 1.7 mL/min/g
AUC(0-inf) [22]: 3340 ng·h/mL
fraction unbound at 1000 ng/ml [23]: 0.18
bioavailability [24]: 61%
clearance at 1 h (in vivo [25]): 5 mL/min/kg
Activity (Salmonella typhimurium [26]): Non-toxic
clearance at 1 h (in vivo [27]): 14 mL/min/kg
Vd [28]: 1.5 L/kg
AUC(0-inf) [29]: 4740 ng·h/mL
CLH [30]: < 0.085 mL/min/g
fraction unbound at 1000 ng/ml [31]: 0.24
AUC(0-inf) [32]: 468 ng·h/mL
fraction unbound at 1000 ng/ml [33]: 0.21
CLH (Liver [34]): < 0.53 mL/min/g
bioavailability [35]: 27%
Activity (Salmonella typhimurium [36]): Non-toxic
CLH (Hepatocyte [37]): < 0.86 mL/min/g
clearance at 1 h (in vivo [38]): 75 mL/min/kg
half-life [39]: 90 min
CLH [40]: 0.2 mL/min/g
Vd [41]: 6.5 L/kg
Activity (Rattus norvegicus): Dose-dependent effect
CLH (Liver [42]): 0.69 mL/min/g
Activity (Salmonella typhimurium [43]): Non-toxic
CLH (Hepatocyte [44]): < 0.86 mL/min/g
fraction unbound at 1000 ng/ml [45]: 0.19
